Where a name gives a salt, the structure may show the parent alone. Read-outs that look alike come from different tables or passages of the source.
Experiments:
Experiment in all cases: biochemical
α-1b adrenoreceptor = molecular target: T1, α-1b adrenoreceptor (Mesocricetus auratus, UniProt P18841); format: binding, hamster; details: read-out: Radioligand Binding (Ki, nM) 1b (Hamster)
T1 sequence (P18841 1-515): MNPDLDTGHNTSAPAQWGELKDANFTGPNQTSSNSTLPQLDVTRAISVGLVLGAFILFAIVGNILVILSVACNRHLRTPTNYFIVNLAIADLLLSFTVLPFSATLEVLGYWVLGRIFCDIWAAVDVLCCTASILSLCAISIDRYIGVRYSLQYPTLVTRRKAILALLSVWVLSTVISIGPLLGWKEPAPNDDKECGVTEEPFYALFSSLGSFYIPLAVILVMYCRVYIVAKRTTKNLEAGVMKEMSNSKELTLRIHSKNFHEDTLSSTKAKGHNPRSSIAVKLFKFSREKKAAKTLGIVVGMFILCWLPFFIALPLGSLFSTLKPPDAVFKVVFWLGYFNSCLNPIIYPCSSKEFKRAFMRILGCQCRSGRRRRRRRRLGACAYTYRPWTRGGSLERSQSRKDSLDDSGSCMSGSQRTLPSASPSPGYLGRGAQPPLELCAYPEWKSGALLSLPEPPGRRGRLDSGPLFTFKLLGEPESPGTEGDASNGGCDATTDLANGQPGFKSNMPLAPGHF
Description: (§1) The cDNA clones encoding the α-1 adrenoreceptors (α-1a, α-1b, and α-1d) were obtained from TULCO (Triangle Universities Licensing Consortium, Research Triangle Park, NC) and inserted into the eukaryotic expression vector SnaB30. In this vector, expression of the adrenoreceptor gene is under the transcriptional control of an SV40 early promoter. Positive drug selection is provided by a neomycin-resistance gene. Mouse fibroblast cells (LTK) were transfected with the α1 expression plasmids and grown in Dulbecco's modified Eagle's medium (DMEM) containing 10% fetal calf serum and 30 µM G418. Stable G418-resistant parental lines were generated, with successful expression of adrenoreceptor protein monitored using radioligand binding techniques. Stable single cell clones derived from the parental lines were screened in adrenoreceptor binding assays to identify clones having high adrenoreceptor density. Roller bottle cultures of the cloned lines were used to provide cell membranes for subsequent adrenoreceptor binding characterization studies. A cell line containing the SnaB30 vector expressing the human erythropoietin gene served as a negative control.
(§2) For adrenoreceptor binding assays, large scale membrane preparations were utilized in which 6 million cells were seeded into small (450 cm^2) Corning tissue culture roller bottles. 200 mL of DMEM containing 10% fetal calf serum and 300 µM G418 were added to each roller bottle. A 95% air / 5% CO2 gas mixture (sterile) was injected into each roller bottle prior to sealing. The bottles were then incubated at 37 °C on a roller rack for 5 days. Cells were re-fed with fresh medium after 3 days in culture.
(§3) On the fifth day of culture, growth medium was removed from cells grown in roller bottles, and the cells were washed twice with PBS (Sigma, 120 mM NaCl, 2.7 mM KCl, 10 mM Na2HPO4-NaH2PO4, pH = 7.4). Cells were detached from the roller bottles by incubating for 15 minutes at 37 °C in a Tris-EDTA solution (10 mM Tris, 100 mM NaCl, 1 mM EDTA, pH = 7.4). The cell suspension from each roller bottle was decanted into tared centrifuge tubes and kept on ice. An aliquot of each cell suspension was generally taken for cell counting. Cells were centrifuged at 3000 X G for 5 min at 2-4 °C, washed with PBS and recentrifuged. The supernatant was decanted and the pellet weighed to determine the wet weight of cells. Cells were washed a final time in 40 vol 5 mM Tris-HCl, 5 mM EDTA, pH = 7.7, and centrifuged at 40,000 X G for 10 minutes. Cells were homogenized in 10 mL of 50 mM Tris-HCl, 5 mM EDTA (pH = 7.4) and diluted to 40 mL/tube. Homogenates were centrifuged at 40,000 X G for 10 minutes. The supernatant was decanted and the pellets rehomogenized in 50 mM Tris-HCl (pH = 7.4) and centrifuged as before. The supernatant was decanted and the homogenate resuspended in 6.25 volumes (per gram wet weight) of 50 mM Tris-HCl and aliquots of the pooled homogenates frozen in liquid N2 and stored at -70 °C until the time of assay. Rat submaxillary glands were used for α-1A adrenoreceptors and were prepared essentially as described (Michel, A. D., Loury, D. N. and Whiting, R. L., Brit. J. Pharmacol. 98: 83-889 (1989)).
(§4) Receptor binding assays for α-1 adrenoreceptors were performed essentially as described by Greengrass and Bremner (Eur. J. Pharmacol. 55: 323-326 (1979)). […] Radioactivity was determined by standard liquid scintillation techniques. Data were analyzed as previously described (Hancock, A. A., Kyncl, J. J., Martin, Y. C. and DeBernardis, J. F., J. Receptor Res. 8: 23-46 (1988)).

[1] = molecular target: T2, α-1A adrenoreceptor (rat submaxillary gland) (Rattus norvegicus, UniProt P43140); format: binding; details: read-out: Radioligand Binding (Ki, nM) 1A (Rat)
T2 sequence (P43140 1-466): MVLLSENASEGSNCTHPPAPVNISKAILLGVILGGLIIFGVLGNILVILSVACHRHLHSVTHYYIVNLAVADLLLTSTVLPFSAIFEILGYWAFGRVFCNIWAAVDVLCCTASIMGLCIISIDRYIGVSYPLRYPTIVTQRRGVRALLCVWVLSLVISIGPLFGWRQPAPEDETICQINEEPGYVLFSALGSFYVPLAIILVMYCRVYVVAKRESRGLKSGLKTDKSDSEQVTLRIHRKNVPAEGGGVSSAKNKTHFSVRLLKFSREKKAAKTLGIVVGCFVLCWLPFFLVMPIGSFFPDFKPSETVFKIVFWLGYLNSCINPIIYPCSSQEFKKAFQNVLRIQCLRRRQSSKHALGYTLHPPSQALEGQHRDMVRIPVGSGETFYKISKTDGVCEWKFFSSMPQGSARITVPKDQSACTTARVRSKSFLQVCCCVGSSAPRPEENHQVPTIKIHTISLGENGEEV
Procedure: Additionally, binding affinity against the pharrnacologically defined α-1A adrenoreceptor (rat submaxillary gland) was measured.
as §3, §4

α-1d adrenoreceptor = molecular target: T3, α-1d adrenoreceptor (Rattus norvegicus, UniProt P23944); format: binding; details: read-out: Radioligand Binding (Ki, nM) 1d (Rat)
T3 sequence (P23944 1-561): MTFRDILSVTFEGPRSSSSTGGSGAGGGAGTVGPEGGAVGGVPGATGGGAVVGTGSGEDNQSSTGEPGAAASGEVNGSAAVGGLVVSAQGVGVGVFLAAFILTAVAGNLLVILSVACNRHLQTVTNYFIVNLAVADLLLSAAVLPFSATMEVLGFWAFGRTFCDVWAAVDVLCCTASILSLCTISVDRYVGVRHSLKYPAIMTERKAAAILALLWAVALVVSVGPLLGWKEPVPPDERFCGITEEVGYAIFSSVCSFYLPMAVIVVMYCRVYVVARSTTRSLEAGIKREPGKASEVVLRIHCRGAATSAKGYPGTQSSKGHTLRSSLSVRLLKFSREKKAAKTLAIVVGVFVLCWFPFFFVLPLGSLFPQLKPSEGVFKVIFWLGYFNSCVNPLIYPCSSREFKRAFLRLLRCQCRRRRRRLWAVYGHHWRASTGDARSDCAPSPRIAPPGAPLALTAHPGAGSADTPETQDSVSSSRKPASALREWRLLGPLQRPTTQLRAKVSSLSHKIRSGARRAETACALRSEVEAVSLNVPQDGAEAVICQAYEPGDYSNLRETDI
Description: as §1, §2, §3, §4

α-1a adrenoreceptor = molecular target: T4, α-1a adrenoreceptor (Bos taurus, UniProt P18130); format: binding, bovine; details: read-out: Radioligand Binding (Ki, nM) 1a (Bovine)
T4 sequence (P18130 1-466): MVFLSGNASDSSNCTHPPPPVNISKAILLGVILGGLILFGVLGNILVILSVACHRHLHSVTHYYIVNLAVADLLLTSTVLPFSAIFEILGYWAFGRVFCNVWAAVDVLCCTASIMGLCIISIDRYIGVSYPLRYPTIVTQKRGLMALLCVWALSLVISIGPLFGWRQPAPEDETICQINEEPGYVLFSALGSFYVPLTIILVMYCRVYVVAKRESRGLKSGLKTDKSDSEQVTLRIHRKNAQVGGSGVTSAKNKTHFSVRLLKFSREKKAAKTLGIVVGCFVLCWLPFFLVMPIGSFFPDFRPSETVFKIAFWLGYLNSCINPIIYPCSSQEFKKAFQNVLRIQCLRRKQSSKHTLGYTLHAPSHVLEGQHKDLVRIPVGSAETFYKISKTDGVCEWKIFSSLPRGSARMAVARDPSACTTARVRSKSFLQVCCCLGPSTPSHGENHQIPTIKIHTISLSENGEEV
Description: as §1, §2, §3, §4

[2] = [3H]-prazosin radioligand, cloned receptor in LTK cell membranes
[3] = [3H]-prazosin radioligand, rat submaxillary gland membranes

Work on `COc1cccc2c1[C@@H]1CCN(CCCCn3c(=O)[nH]c4c(sc5nc(Cl)ccc54)c3=O)C[C@H]1CO2` [Example 102, 3-[4-((4aS,10bR)-trans-10-Methoxy-1,3,4,4a,5,10b-hexahydro-2H-[1]-benzopyrano[3,4-c]pyrido-3-yl)butyl]-7-chloro-pyrido[3',2':4,5]thieno[3,2-d]pyrimidine-2,4(1H,3H)-dione hydrochloride] yielded a Ki (α-1b adrenoreceptor; [2]) of 6.26 nM, a Ki [1, 3] of 1.89 nM and a Ki (α-1d adrenoreceptor; [2]) of 0.651 nM. For the same compound, the Ki (α-1a adrenoreceptor; [2]) was 0.113 nM.

`COc1cccc2c1[C@H]1CN(CCCCn3c(=O)[nH]c4c(sc5cccnc54)c3=O)C[C@@H]1CO2` [Example 4, 3-[4-((3aR,9bS)-trans-9-Methoxy-1,2,3,3a,4,9b-hexahydro-[1]-benzopyrano[3,4-c]pyrrol-2-yl)butyl]-pyrido[2',3':4,5]thieno[3,2-d]pyrimidine-2,4(1H,3H)-dione hydrochloride] gave a Ki (α-1b adrenoreceptor; [2]) of 0.867 nM, a Ki [1, 3] of 0.097 nM and a Ki (α-1d adrenoreceptor; [2]) of 0.377 nM. The Ki (α-1a adrenoreceptor; [2]) was 0.049 nM.

Compound `COc1ccc2c(n1)sc1c(=O)n(CCCCN3CC[C@H]4c5c(OC)cccc5OC[C@@H]4C3)c(=O)[nH]c12` [Example 103, 3-[4-((4aS,10bR)-trans-10-Methoxy-1,3,4,4a,5,10b-hexahydro-2H-[1]-benzopyrano[3,4-c]pyrido-3-yl)butyl]-7-methoxy-pyrido[3',2':4,5]thieno[3,2-d]pyrimidine-2,4(1H,3H)-dione hydrochloride] has a Ki (α-1b adrenoreceptor; [2]) of 3.33 nM, a Ki [1, 3] of 0.909 nM and a Ki (α-1d adrenoreceptor; [2]) of 0.243 nM. The Ki (α-1a adrenoreceptor; [2]) was 0.115 nM.

`COc1cccc2c1[C@@H]1CN(CCCCn3c(=O)[nH]c4c(sc5ccc(-c6ccccc6)nc54)c3=O)C[C@H]1CO2` [Example 52, 3-[4-((3aS,9bR)-trans-9-Methoxy-1,2,3,3a,4,9b-hexahydro-[1]-benzopyrano[3,4-c]pyrrol-2-yl)butyl]-8-phenyl-pyrido[2',3':4,5]thieno[3,2-d]pyrimidine-2,4(1H,3H)-dione dihydrochloride] was tested, and the Ki (α-1b adrenoreceptor; [2]) was 13.6 nM, the Ki [1, 3] was 3.98 nM and the Ki (α-1d adrenoreceptor; [2]) was 0.597 nM. The Ki (α-1a adrenoreceptor; [2]) was 1.08 nM.

Compound `COc1cccc2c1[C@@H]1CN(CCCCn3c(=O)[nH]c4c(sc5nccnc54)c3=O)C[C@H]1CO2` [Example 14, 3-[4-((3aS,9bR)-trans-9-Methoxy-1,2,3,3a,4,9b-hexahydro-[1]-benzopyrano[3,4-c]pyrrol-2-yl)butyl]-pyrazino[2',3':4,5]thieno[3,2-d]pyrimidine-2,4(1H,3H)-dione dihydrochloride] has a Ki (α-1b adrenoreceptor; [2]) of 1.37 nM, a Ki [1, 3] of 0.105 nM and a Ki (α-1d adrenoreceptor; [2]) of 0.145 nM. It also gave a Ki (α-1a adrenoreceptor; [2]) of 0.038 nM.

Work on `O=c1[nH]c2c(sc3cccnc32)c(=O)n1CCCCN1C[C@@H]2COc3ccccc3[C@H]2C1` (racemic) [Example 71, 3-[4-((±)-trans-1,2,3,3a,4,9b-hexahydro-[1]-benzopyrano[3,4-c]pyrrol-2-yl)butyl]-pyrido[2',3':4,5]thieno[3,2-d]pyrimidine-2,4(1H,3H)-dione hydrochloride] yielded a Ki (α-1b adrenoreceptor) of 0.634 nM, a Ki [1] of 0.065 nM and a Ki (α-1d adrenoreceptor) of 0.169 nM. The Ki (α-1a adrenoreceptor) was 0.068 nM.

With `COc1cccc2c1[C@@H]1CN(CCCCn3c(=O)[nH]c4c(sc5c(Cl)ccnc54)c3=O)C[C@@H]1CO2` [Example 20, 3-[4-((3aR,9bR-cis-9-Methoxy-1,2,3,3a,4,9b-hexahydro-[1]-benzopyrano[3,4-c]pyrrol-2-yl)butyl]-6-chloro-pyrido[2',3':4,5]thieno[3,2-d]pyrimidine-2,4(1H,3H)-dione hydrochloride] the Ki (α-1b adrenoreceptor; [2]) was 3.5 nM, the Ki [1, 3] was 0.208 nM and the Ki (α-1d adrenoreceptor; [2]) was 0.439 nM. It also gave a Ki (α-1a adrenoreceptor; [2]) of 0.038 nM.

`COc1ccc2c(c1)[C@@H]1CN(CCCn3c(=O)[nH]c4c(sc5ncccc54)c3=O)C[C@@H]1CO2` (racemic) [Example 77, 3-[3-((±)-cis-8-Methoxy-1,2,3,3a,4,9b-hexahydro-[1]-benzopyrano[3,4-c]pyrrol-2-yl)propyl]-pyrido[3',2':4,5]thieno[3,2-d]pyrimidine-2,4(1H,3H)-dione hydrochloride] showed a Ki [1] of 99.7 nM, a Ki (α-1d adrenoreceptor) of 106 nM and a Ki (α-1a adrenoreceptor) of 27 nM.
